Our source for the IC50 values is patent EP1953147A1, “HETEROCYCLIC COMPOUND AND MEDICINAL APPLICATION THEREOF” (priority 2005, dated 2007).

In this experiment the test system is ΔG/SEAP/HCV E1E2. Kind of experiment: Effect of test substance on cell infection with HCV pseudotype virus (SEAP reporter assay in HepG2 cells). Format: cell-based. To be noted: Hepatitis C virus. (Reporter assays use an easily measured gene product as a stand-in for the process of interest.)

Each structure is given as a SMILES string.

Broadly, the IC50 is the midpoint of a concentration-inhibition curve. A low value points to inhibition by little substance. Take `CNC(=O)CCNc1ccc(C(F)(F)F)c(-n2nc(-c3cc(OC)cc(OC)c3)c3c(c2=O)CCC3)c1` [Example 138, 3-{3-[4-(3,5-dimethoxy-phenyl)-1-oxo-1,5,6,7-tetrahydro-cyclopenta[d]pyridazin-2-yl]-4-trifluoromethyl-phenylamino}-N-methyl-propionamide]: the 50% inhibitory concentration (IC50) was < 0.1 µM.

In the case of `COc1cccc(-c2nn(-c3cc(N4CC[C@H](O)C4)ccc3C(F)(F)F)c(=O)c3c2CCN3)c1` [Example 43, 6-[5-((S)-3-hydroxy-pyrrolidin-1-yl)-2-trifluoromethyl-phenyl]-4-(3-methoxy-phenyl)-1,2,3,6-tetrahydro-pyrrolo[2,3-d]pyridazin-7-one], the IC50 is < 0.1 µM.

For `Cc1cc(-c2cnco2)cc(-c2nn(-c3cc(N4CC[C@H](O)C4)ccc3C(F)(F)F)c(=O)c3c2CC(C)(C)C3)c1` [Example 6, 2-[5-((S)-3-hydroxy-pyrrolidin-1-yl)-2-trifluoromethyl-phenyl]-6,6-dimethyl-4-(3-methyl-5-oxazol-5-yl-phenyl)-2,5,6,7-tetrahydro-cyclopenta[d]pyridazin-1-one], the concentration for half-maximal inhibition (IC50) is < 0.1 µM.

For the molecule `COc1cc(OC)cc(-c2nn(-c3cc(NCCCNC(=O)OC(C)(C)C)ccc3C(F)(F)F)c(=O)c3c2CCC3)c1` [Example 129, (3-{3-[4-(3,5-dimethoxy-phenyl)-1-oxo-1,5,6,7-tetrahydro-cyclopenta[d]pyridazin-2-yl]-4-trifluoromethyl-phenylamino}-propyl)-carbamic acid tert-butyl ester], the IC50 is < 0.1 µM.

For the molecule `COC(=O)CCNc1ccc(C(F)(F)F)c(-n2nc(-c3cc(OC)cc(OC)c3)c3c(c2=O)CCC3)c1` [Example 143, 3-{3-[4-(3,5-dimethoxy-phenyl)-1-oxo-1,5,6,7-tetrahydro-cyclopenta[d]pyridazin-2-yl]-4-trifluoromethyl-phenylamino}-propionic acid methyl ester], the IC50 was < 0.1 µM.

As to `COc1ccc(-c2nn(-c3cc(N4CC[C@H](O)C4)ccc3C(F)(F)F)c(=O)c3c2CCC3)cc1` [Example 77, 2-[5-((S)-3-hydroxy-pyrrolidin-1-yl)-2-trifluoromethyl-phenyl]-4-(4-methoxy-phenyl)-2,5,6,7-tetrahydro-cyclopenta[d]pyridazin-1-one], the IC50 was < 0.1 µM.

With `COc1cc(OC)cc(-c2nn(-c3cc(N4CC[C@H](O)C4)ccc3C(F)(F)F)c(=O)c3c2SCC3)c1` [Example 1-37, 7-(3,5-dimethoxy-phenyl)-5-[5-((S)-3-hydroxy-pyrrolidin-1-yl)-2-trifluoromethyl-phenyl]-3,5-dihydro-2H-thieno[2,3-d]pyridazin-4-one], the IC50 is < 0.1 µM.

In the case of `COc1cc(OC)cc(-c2nn(-c3cc(N4CC[C@H](O)C4)ccc3C(F)(F)F)c(=O)c3c2CCN3CC(=O)NCCCCCCNC(C)=O)c1` [Example 40, N-(6-acetylamino-hexyl)-2-{4-(3,5-dimethoxy-phenyl)-6-[5-((S)-3-hydroxy-pyrrolidin-1-yl)-2-trifluoromethyl-phenyl]-7-oxo-2,3,6,7-tetrahydro-pyrrolo[2,3-d]pyridazin-1-yl}-acetamide], the IC50 was < 0.1 µM.

For `Cc1ccccc1-c1nn(-c2cc(N3CC[C@H](O)C3)ccc2C(F)(F)F)c(=O)c2c1CCC2` [Example 133, 2-[5-((S)-3-hydroxy-pyrrolidin-1-yl)-2-trifluoromethyl-phenyl]-4-o-tolyl-2,5,6,7-tetrahydro-cyclopenta[d]pyridazin-1-one], the IC50 lay within 0.1 to 10 µM.

`COc1cc(OC)cc(-c2nn(-c3cc(NC(=O)CO)ccc3C(F)(F)F)c(=O)c3c2CCC3)c1` [Example 83, N-{3-[4-(3,5-dimethoxy-phenyl)-1-oxo-1,5,6,7-tetrahydro-cyclopenta[d]pyridazin-2-yl]-4-trifluoromethyl-phenyl}-2-hydroxy-acetamide]: the IC50 is < 0.1 µM.

As to `O=c1c2c(c(-c3cccc(F)c3)nn1-c1cc(N3CC[C@H](O)C3)ccc1C(F)(F)F)CCC2` [Example 65, 4-(3-fluoro-phenyl)-2-[5-((S)-3-hydroxy-pyrrolidin-1-yl)-2-trifluoromethyl-phenyl]-2,5,6,7-tetrahydro-cyclopenta[d]pyridazin-1-one], the IC50 is < 0.1 µM.

On to `CNC(=O)c1ccc(C(F)(F)F)c(-n2nc(-c3cc(OC)cc(OC)c3)c3c(c2=O)CCC3)c1` [Example 1-11, 3-[4-(3,5-dimethoxy-phenyl)-1-oxo-1,5,6,7-tetrahydro-cyclopenta[d]pyridazin-2-yl]-N-methyl-4-trifluoromethyl-benzamide], for which the half-maximal inhibitory concentration (IC50) is < 0.1 µM.

`COc1cc(OC)cc(-c2nn(-c3cc(N4CCC(=O)C4)ccc3C(F)(F)F)c(=O)c3c2CCN3)c1` [Example 25, 4-(3,5-dimethoxy-phenyl)-6-[5-(3-oxo-pyrrolidin-1-yl)-2-trifluoromethyl-phenyl]-1,2,3,6-tetrahydro-pyrrolo[2,3-d]pyridazin-7-one]: the IC50 was < 0.1 µM.

`COc1cc(C)cc(-c2nn(-c3cc(-c4cccnn4)ccc3C(F)(F)F)c(=O)c3c2CCC3)c1` [Example 1-4, 4-(3-methoxy-5-methyl-phenyl)-2-[5-(pyridazin-3-yl)-2-trifluoromethyl-phenyl]-2,5,6,7-tetrahydro-cyclopenta[d]pyridazin-1-one]: the IC50 was < 0.1 µM.

Turning to `COc1cc(OC)cc(-c2nn(-c3cc(NCCC(=O)OC(C)(C)C)ccc3C(F)(F)F)c(=O)c3c2CCC3)c1` [Example 115, 3-{3-[4-(3,5-dimethoxy-phenyl)-1-oxo-1,5,6,7-tetrahydro-cyclopenta[d]pyridazin-2-yl]-4-trifluoromethyl-phenylamino}-propionic acid tert-butyl ester], the IC50 was < 0.1 µM.
